Experimental data from patent US8378097B2, “3-(1,3-benzodioxol-5-yl)-6-(4-cyclopropylpiperazin-1-yl)-pyridazine, its salts and solvates and its use as histamine H3 receptor antagonist” (High Point Pharmaceuticals, LLC, priority 2006, dated 2013).
Structures can show the parent of a compound that is named as a salt.

What was measured:
[1] = mutagenic activity test
[2] = tests with mice: intake of food; assay type: in vivo; details: in tests with mice

**Q.** For `c1cc2c(cc1-c1ccc(N3CCN(C4CC4)CC3)nn1)OCO2` [Example 1, 3-(1,3-Benzodioxol-5-yl)-6-(4-cyclopropylpiperazin-1-yl)pyridazine dihydrochloride], which mutagenic activity [1] is on record?
**A.** The mutagenic activity was “No mutagenic activity”.

**Q.** And the “effect on the intake of food” value [2]?
**A.** The value was “reducing effect on the intake of food”.
